The mortality is the percentage killed.

The subject of test [1] is black bean aphids (Aphis fabae). The test is described as follows: Method B: root-systemic action, preparation pipetted into the bottle of field bean (Vicia faba) populated with aphids. It counts as in vivo. The settings on record: read-out: mortality among the aphids, by root-systemic action. The method, then: Germinated field bean seeds (Vicia faba) with seed roots were transferred into brown glass bottles filled with tap water and then populated with about 100 black bean aphids (Aphis fabae). Plants and aphids were then dipped into an aqueous solution of the formulated preparation to be examined for 5 seconds. After they had drained, plants and animals were stored in a climatized chamber (16 hours of light/day, 25° C., 40-60% relative atmospheric humidity). After 3 and 6 days of storage, the effect of the preparation on the aphids was determined. […] Method B:
Germinated field bean seeds (Vicia faba) with seed roots were transferred into brown glass bottles filled with tap water. Four milliliters of an aqueous solution of the formulated preparation to be examined were pipetted into the brown glass bottle. The field bean was then heavily populated with about 100 black bean aphids (Aphis fabae). Plants and aphids were then stored in a climatized chamber (16 hours of light/day, 25° C., 40-60% relative atmospheric humidity). After 3 and 6 days of storage, the root-systemic effect of the preparation on the aphids was determined.

For test [2] the test system is unchanged. The test is described as follows: Method A: field bean plants (Vicia faba) and aphids dipped into aqueous solution of the formulated preparation. The settings on record: read-out: mortality among the aphids. Format: in vivo. The procedure: Germinated field bean seeds (Vicia faba) with seed roots were transferred into brown glass bottles filled with tap water and then populated with about 100 black bean aphids (Aphis fabae). Plants and aphids were then dipped into an aqueous solution of the formulated preparation to be examined for 5 seconds. After they had drained, plants and animals were stored in a climatized chamber (16 hours of light/day, 25° C., 40-60% relative atmospheric humidity). After 3 and 6 days of storage, the effect of the preparation on the aphids was determined. […]

Molecules are shown by their SMILES.

On to `CCC1(C)N/C(=N/C(=O)c2cnccc2C(F)(F)F)NC1=O` (stereo not drawn) [Compound B-91, N-[(2Z)-4-ethyl-4-methyl-5-oxo-2-imidazolidinylidene]-4-(trifluoromethyl)nicotinamide], for which the mortality at 30 ppm in test [1] is 90 to 100%. The mortality at 300 ppm in test [2] was 90 to 100%.
With `CC1(C)N/C(=N/C(=O)c2cnccc2C(F)(F)F)N(Cc2ccc(Cl)cc2)C1=O` [Compound B-529, N-[(2Z)-1-(4-chlorobenzyl)-4,4-dimethyl-5-oxo-2-imidazolidinylidene]-4-(trifluoromethyl)nicotinamide], the mortality at 30 ppm in test [1] fell in the range of 90 to 100%. Moreover, the mortality at 300 ppm in test [2] was 90 to 100%.
For `CSC1=N/C(=N\C(=O)c2cnccc2C(F)(F)F)N(C(C)=O)C1(C)C` [Compound E-135, N-[(2Z)-1-acetyl-5,5-dimethyl-4-methylthio-1,5-dihydro-2H-imidazol-2-ylidene]-4-(trifluoromethyl)nicotinamide], in test [1], the mortality at 30 ppm lay in the range of 90 to 100%. The mortality at 300 ppm in test [2] lay within 90 to 100%.

The values above are taken from patent publication US20070010532A1, “3-Pyridylcarboxamide derivatives as pesticidal agents” (BAYER CROPSCIENCE GMBH, priority 2003, published 2007).
